The values that follow come from patent US4935509A (priority 1989, dated 1990).

The test system of series [1] is P388 multiple-drug resistant cells. Description: cells. Format: cell-based, murine. Particulars: for Fold-resistance: ID50 resistant cell line divided by ID50 wildtype cell line, 7200 min; for IC50: Mus musculus, P388, 120 h, read-out: ID50 P3/88/resist. The procedure:
(§1) In the various assays set forth below the colorimetric determination of the number of cells was carried out by the following procedure using MTT.
(§2) 3-(4,5-dimethylthiazol-2-yl)-2,5-dipenyl tetrazolium bromide (MTT) was prepared as a 5 mg/ml stock solution in phosphate buffered saline, filtered through a 0.22 μm filter and stored for up to two weeks at 4° C. while protected from light. For use in the assay it was diluted to 1 mg/ml in a pH 7.2 solution of phenol-red-free RPMI 1640 tissue culture medium supplemented with 1 mM sodium pyruvate and 50 μg/ml gentamycin. The assay was done in flat bottomed 96-well microtiter plates. Culture medium was removed from the wells by inverting and blotting the plate, fifty μl of MTT solution was added to the cells in each well, and each plate was incubated at 37° C. in an atmosphere of 5% CO2 in air. After incubation, each plate was centrifuged for 5 minutes at 8000×g and excess MTT removed by inverting and blotting. Fifty μl of 95% ethanol was added to each well and the plate was shaken (speed 6.5 for 15 minutes) to solubilize the formazan in each well. The optical density of each well was measured using an automatic plate reader with a test wavelength of 570 nm and a reference wavelength of 630 nm.
(§3) The differential in vitro activity of the above compounds as compared to vincristine and vinblastine with regard to P388 wild-type and P388 multiple-drug resistant leukemia was carried out by the following procedure.
(§4) Tissue culture-adapted lines of the P388 wild-type and P388 multiple-drug resistant cells (principally resistant to adriamycin) were obtained from the American Type Culture Collection, Rockville, MD. Experiments were conducted in 96-well microtiter plates with 300 cells from either line seeded in a volume of 200 μl of tissue culture medium (RPMI 1640 supplemented to 10% (v/v) with heat-inactivated fetal bovine serum (FBS) and to […] with 1-glutamine). Cells and varying log^10 dilutions of test compound were added to triplicate sets of wells on the same day and cultures were incubated for 5 days at 37° C. in a humidified atmosphere of 5% CO2 in air. The number of cells per well at the end of the experiment was determined colorimetrically by the reduction of MTT as described above.

In a further series the test system is COLO-320-DM. Description: MTT cell count (ID50), human colon cancer cell line COLO-320-DM. Type of series: cell-based. Particulars: 144 h, read-out: ID50 COLO-320. On the procedure: as §1, §2
(§5) The in vitro effects of the novel compounds as compared to vinblastine and vincristine on three human colon cancer cell lines and one non-transformedhuman cell line were determined by the following procedure.
(§6) The non-transformed human fibroblast cell line, WI-38 and two of the human colon cancer cell lines, COLO-320-DM and HT-29, were obtained from the American Type Culture Collection, Rockville, MD and the third human colon cancer cell line, OM-1, was supplied by E. I. du Pont de Nemours and Co., Inc., Glenholden, PA. Both OM-1 and COLO-320-DM cells were maintained by serial passage in RPMI 1640 tissue culture medium supplemented to 10% (v/v) with heat-inactivated FBS. HT-29 cells were similarly maintained in McCoys 5A tissue culture medium supplemented with 10% heat-inactivated FBS. COLO-320-DM cells were detached by gentle scraping while HT-29 and OM-1 cells were detached using 0.25% trypsin and 0.05% trypsin, 0.5 mM EDTA solutions respectively. All cultures were incubated at 37° C. in a humidified environment of 5% CO2 in air. Experiments were conducted in 96-well flat-bottomed plates. The initial cell seeds per well for each cell line were 4,000 for WI- 38; 2,000 for COLO-320-DM; 750 for HT-29; and 3,000 for OM-1, each in the appropriate tissue culture medium. Cells were plated 24 hours before test compound was added to allow cells to recover from the effects of physical scraping and trypsinization. Varying log10 dilutions of drug were added to triplicate sets of wells and cultures were incubated for 6 days at 37° in a humidified atmosphere of 5% CO2 in air. The number of cells per well at the end of the experiment was determined colorimetrically by the reduction of MTT as described above and the results for each compounds shown in Table II. For purposes of comparison, the concentration of each test compound required to reduce the final cell number to one-half of the number in drug-free control cultures (ID50) is shown in Table II.

Another series deals with HT-29. Kind of series: MTT cell count (ID50), human colon cancer cell line HT-29. Type of series: cell-based. Particulars: HT-29, 144 h, read-out: ID50 HT-29. On the procedure: as §1, §2, §5, §6
The next series relates to P388 wild-type cells. Description: MTT cell count (ID50), P388 wild-type leukemia cells in vitro. Format: cell-based, murine. Particulars: Mus musculus, P388, 120 h, read-out: ID50 P388/Wild. The procedure:
as §1, §2, §3, §4

Another series deals with WI-38 fibroblast. Kind of series: MTT cell count (ID50), non-transformed human fibroblast cell line WI-38. Set-up: unit not given here. Particulars: 6 days incubation. Format: cell-based. The procedure: as §1, §2, §5, §6
A further series has as its system OM-1. Kind of series: MTT cell count (ID50), human colon cancer cell line OM-1. Particulars: 144 h, read-out: ID50 OM-1. Format: cell-based. On the procedure:
as §1, §2, §5, §6

Series [2] in a line: In vivo effect against P388 leukemia in mice (TD50, ED50, T.I.). Particulars: mouse, in vivo, ip. The source says:
(§7) The in vivo effect of the novel compounds of this invention against P388 leukemia as compared to vinblastine and vincristine, were compared by the following procedure.
(§8) P388 murine leukemia cells were obtained from Southern Research Institute, Birmingham, Ala., and were maintained by serial i.p. passage in C57BL/6 mice. Female (C57BL/6×DBA/2) F1 (BDF) mice of 6-8 weeks of age from Jackson Laboratories, Bar Harbor, Maine, received 1×10^6 P388 cells by i.p. inoculation on day 0. Compounds were dissolved in saline and administered i.p. to 10 tumor-bearing mice per dose level on days 0-4 and 7-9 using 5 to 10 log2 dilutions from a concentration known to be toxic. […] The therapeutic index (T.I.) for each compound was calculated by the formula: [formula]

The subject of series [3] is P388 leukemia. The description is as above. Particulars: for T.I. (therapeutic index): calculated from TD50 and ED50.
Excerpt: as §7, §8

The test system of series [4] is P388 leukemia. Description: Increase in mean survival time of mice bearing P388 leukemia. Format: in vivo. Particulars: i.p.; for Increase in MST: vs vehicle. The procedure:
The efficacy of the remaining compounds is clearly documented by the fact that each increased the mean survival time of tumor-bearing mice in a dose-dependentmanner. […] The percent increase in mean survival time (MST) which appears in Table IV was calculated by the following formula: [formula]

In series [1], `CC[C@]12C=CCN3CC[C@@]4(c5cc([C@@]6(C(=O)OC)C[C@H]7CN(CCc8c6[nH]c6ccccc86)C[C@H]6CCCC[C@H]67)c(OC)cc5N(C)[C@H]4[C@@](O)(C(=O)OC)[C@@H]1OC(C)=O)[C@@H]32` [C, (4aS,8aR,9R,11S)-15-[1,2,4,4a,5,6,7,8,8a,9,10,11,12,17-tetradecahydro-11-(methoxycarbonyl)-indolo(2',3':6,7,)azonino(1,2,3-bc)isoquinolin-11-yl]vindoline] returned a Fold-resistance of 4. Moreover, the IC50 in series [1] was determined as 850 nM; in the series on COLO-320-DM it was 400 nM; in the series with HT-29 it was 300 nM; in the series on P388 wild-type cells, 220 nM; with OM-1 it was 400 nM. Besides, in the series on WI-38 fibroblast, the “ID50 WI-38 fibroblast” value is listed as 5 × 10^-7. Further, the 50% lethal dose (LD50) (usually the dose at which mortality reaches 50%) in series [2] is 0.1 mg/kg. Further, the ED50 (in general, the midpoint of the dose-response relation) with P388 leukemia [3] (Mus musculus, P388, ip, read-out: ED50 (extrapolated values)) is 0.1 mg/kg. The “T.I. (therapeutic index)” value with P388 leukemia [3] was 1.0. In addition, in the series on P388 leukemia [4] (0.06 mg/kg (optimal dose), vehicle 10.1 days), the “Mean Survival Time” value worked out at 21.1 days. In the series on P388 leukemia [4] (0.06 mg/kg (optimal dose)), the “Increase in MST” value is 109%.
For the compound `CC[C@]12C=CCN3CC[C@@]4(c5cc([C@@]6(C(=O)OC)C[C@H]7CN(CCc8c6[nH]c6ccccc86)Cc6ccccc67)c(OC)cc5N(C)[C@H]4[C@@](O)(C(=O)OC)[C@@H]1OC(C)=O)[C@@H]32` [A, (9R,11S)-15-[1,2,4,9,10,11,12,17-octahydro-11-(methoxycarbonyl)-indolo(2',3':6,7)azonino(1,2,3-bc)isoquinolin-11-yl]vindoline], the Fold-resistance in series [1] is recorded as 4. Moreover, the IC50 stood at 400 nM in series [1]; 400 nM in the series on COLO-320-DM; 30 nM with HT-29; 95 nM in the series with P388 wild-type cells; 400 nM in the series with OM-1. Besides, the “ID50 WI-38 fibroblast” value with WI-38 fibroblast was 4 × 10^-7. This compound also returned an LD50 in [2] of 0.28 mg/kg. In the series on P388 leukemia [3], the “T.I. (therapeutic index)” value is reported as under 1. In addition, the “Mean Survival Time” value with P388 leukemia [4] (0.12 mg/kg (optimal dose), vehicle 9.6 days (A), 10.1 days (E)) was 19.7 days. In addition, in the series on P388 leukemia [4] (0.12 mg/kg (optimal dose)), the “Increase in MST” value is on record as 105%.
